Assay results: patent US12123048B2, “Fluorinated 4′-alkylumbelliferyl a-D-glucopyranosides, biological sterilization indicators including the same and methods of using the same” (3M INNOVATIVE PROPERTIES COMPANY, priority 2018, dated 2024)

Tested on: Geobacillus stearothermophilus spores (ATCC 7953)
Assay: Fluorescence measurements using enzyme substrates and Geobacillus stearothermophilus spores in LB broth
Assay type: cell-based
Settings: substrate 0.3 mg/mL, 5×10^6 spores, 60° C.
Protocol: Luria-Bertani (LB) broth was prepared by dissolving tryptone (10 g/L), yeast extract (5 g/L), and NaCl (5 g/L) in deionized water. In the examples, 6′-fluoro-4′-methylumbelliferyl α-D-glucopyranoside (0.3 mg/mL) or 5′-fluoro-4′-methylumbelliferyl α-D-glucopyranoside (0.3 mg/mL) was added to the broth. In the comparative examples, 4′-methylumbelliferyl α-D-glucopyranoside (MUG) (0.3 mg/mL) or 6′,8′-Difluoro-4′-methylumbelliferyl α-D-glucopyranoside (0.3 mg/mL) was added to the broth. The pH of the broth was adjusted to either pH 6, pH 7, pH 8, or pH 9 using 0.1 N hydrochloric acid or 1N sodium hydroxide solutions. The broth was passed through a 0.22 micron filter prior to use.
LB broth (pH 6) containing 6′-fluoro-4′-methylumbelliferyl α-D-glucopyranoside (0.3 mg/mL) (enzyme substrate of Example 1) was added to two wells (100 microliters per well) of a black 96-well microtiter plate with optically clear, flat bottom wells (NUNC #165301, Thermo Fisher Scientific, Waltham, MA). A 5 microliter aqueous suspension containing 5×10^6 Geobacillus stearothermophilus spores (ATCC 7953) was added to each well of the microtiter plate. Next, the contents of each well were mixed using a multiple aspiration/delivery sequence with the pipet. […] The top of the plate was covered with an optically clear sealing film (product #4311971, Applied Biosystems Corporation, Foster City, CA). The plate was warmed at 60° C. and shaken in a linear direction. Fluorescence readings (360 nm excitation/450 nm emission at 50% gain) were taken from the bottom of the plate. A reading was taken at an initial time point of 10 seconds and then at +1 minute intervals thereafter. A Synergy Neo2 fluorescence plate reader (BioTek Company, Winooski, VT) was used. In Table 1, the mean fluorescence values detected (RFU) at times of 10 seconds, +5 minutes, +10 minutes, and +30 minutes are reported. The mean fluorescence values detected for the control wells were 978 RFU at 10 seconds; 920 RFU at +5 minutes; 870 RFU at +10 minutes, and 746 RFU at +30 minutes.
(§1) The procedure of Example 3 was followed, with the exception that the LB broth (pH 6) containing 6′-fluoro-4′-methylumbelliferyl α-D-glucopyranoside (0.3 mg/mL) was replaced with LB broth (pH 6) containing 5′-fluoro-4′-methylumbelliferyl-α-D-glucopyranoside (0.3 mg/mL) (enzyme substrate of Example 2). In Table 1, the mean fluorescence values detected (RFU) at times of 10 seconds, +5 minutes, +10 minutes, and +30 minutes are reported. The mean fluorescence values detected for the control wells were 828 RFU at 10 seconds; 784 RFU at +5 minutes; 738 RFU at +10 minutes, and 622 RFU at +30 minutes.
as §1, with “4-methylumbelliferyl α-D-glucopyranoside” for “5′-fluoro-4′-methylumbelliferyl-α-D-glucopyranoside”, “(MUG).” for “(enzyme substrate of Example 2).”, “868” for “828”, “802” for “784”, “756” for “738”, “656” for “622”
The procedure of Example 3 was followed, with the exception that the LB broth (pH 6) containing 6′-fluoro-4′-methylumbelliferyl α-D-glucopyranoside (0.3 mg/mL) was replaced with LB broth (pH 6) containing 6′,8′-difluoro-4′-methylumbelliferyl α-D-glucopyranoside (0.3 mg/mL) (enzyme substrate of Comparative Example A). In Table 1, the mean fluorescence values detected (RFU) at times of 10 seconds, +5 minutes, +10 minutes, and +30 minutes are reported. The mean fluorescence values detected for the control wells were 1,768 RFU at 10 seconds; 1,750 RFU at +5 minutes; 1,743 RFU at +10 minutes, and 1,805 RFU at +30 minutes. […]

[1] = pH 6 LB broth, 360 nm excitation/450 nm emission

SMILES	MEASURED FLUORESCENCE, RFU 10 sec [1]	MEASURED FLUORESCENCE, RFU +5 min (pH 6 LB broth)	MEASURED FLUORESCENCE, RFU +10 min (pH 6 LB broth)	MEASURED FLUORESCENCE, RFU +30 min (pH 6 LB broth)	MEASURED FLUORESCENCE, RFU 10 sec (pH 7 LB broth)	MEASURED FLUORESCENCE, RFU +5 min (pH 7 LB broth)	MEASURED FLUORESCENCE, RFU +10 min (pH 7 LB broth)	MEASURED FLUORESCENCE, RFU +30 min (pH 7 LB broth)	MEASURED FLUORESCENCE, RFU 10 sec (pH 8 LB broth)	MEASURED FLUORESCENCE, RFU +5 min (pH 8 LB broth)	MEASURED FLUORESCENCE, RFU +10 min (pH 8 LB broth)	MEASURED FLUORESCENCE, RFU +30 min (pH 8 LB broth)	MEASURED FLUORESCENCE, RFU 10 sec (pH 9 LB broth)	MEASURED FLUORESCENCE, RFU +5 min (pH 9 LB broth)	MEASURED FLUORESCENCE, RFU +10 min (pH 9 LB broth)	MEASURED FLUORESCENCE, RFU +30 min (pH 9 LB broth)
Cc1cc(=O)oc2c(F)c(O[C@H]3O[C@H](CO)[C@@H](O)[C@H](O)[C@H]3O)c(F)cc12 [Comparative Example A, 6′,8′-Difluoro-4′-methylumbelliferyl α-D-glucopyranoside]	29807 RFU	68823 RFU	85625 RFU	>100000 RFU	32795 RFU	67118 RFU	89943 RFU	>100000 RFU	20878 RFU	48312 RFU	77765 RFU	>100000 RFU	4119 RFU	12620 RFU	31290 RFU	77404 RFU
Cc1cc(=O)oc2cc(O[C@H]3O[C@H](CO)[C@@H](O)[C@H](O)[C@H]3O)ccc12 [MUG, 4′-methylumbelliferyl-α-D-glucopyranoside]	1590 RFU	3100 RFU	5607 RFU	15915 RFU	3298 RFU	7944 RFU	15511 RFU	41643 RFU	3450 RFU	9572 RFU	21171 RFU	64484 RFU	1193 RFU	3444 RFU	9258 RFU	48874 RFU
Cc1cc(=O)oc2cc(O[C@H]3O[C@H](CO)[C@@H](O)[C@H](O)[C@H]3O)cc(F)c12 [Example 2, 5′-Fluoro-4′-methylumbelliferyl α-D-glucopyranoside]	1663 RFU	3559 RFU	7048 RFU	20550 RFU	5842 RFU	15059 RFU	28596 RFU	58390 RFU	3928 RFU	11692 RFU	26273 RFU	66491 RFU	1116 RFU	3002 RFU	7983 RFU	43732 RFU
Cc1cc(=O)oc2cc(O[C@H]3O[C@H](CO)[C@@H](O)[C@H](O)[C@H]3O)c(F)cc12 [Example 1, 6′-Fluoro-4′-methylumbelliferyl α-D-glucopyranoside]	11764 RFU	30536 RFU	51188 RFU	82334 RFU	24718 RFU	54317 RFU	79851 RFU	>100000 RFU	11298 RFU	32225 RFU	61862 RFU	>100000 RFU	2823 RFU	8863 RFU	22809 RFU	77125 RFU
